± gives the expanded uncertainty stated by the source.
Assay: molar heat capacity at constant volume
Details: Fluid (supercritical or subcritical phases), Vacuum adiabatic calorimetry

## CCC(C)O (stereo unspecified) [butan-2-ol]
513.55 K, Mass density=474.07 kg/m3
  molar heat capacity at constant volume: 293.52 ± 3 J/K/mol
513.74 K, Mass density=95.93 kg/m3
  molar heat capacity at constant volume: 641.3 ± 8.3 J/K/mol
513.74 K, Mass density=474.07 kg/m3
  molar heat capacity at constant volume: 293.52 ± 3 J/K/mol
513.92 K, Mass density=95.93 kg/m3
  molar heat capacity at constant volume: 638.11 ± 8.2 J/K/mol
513.92 K, Mass density=474.07 kg/m3
  molar heat capacity at constant volume: 295 ± 3 J/K/mol
514.11 K, Mass density=95.93 kg/m3
  molar heat capacity at constant volume: 635.74 ± 8.3 J/K/mol
514.11 K, Mass density=474.07 kg/m3
  molar heat capacity at constant volume: 289.82 ± 3 J/K/mol
514.3 K, Mass density=95.93 kg/m3
  molar heat capacity at constant volume: 627.59 ± 8.1 J/K/mol
514.3 K, Mass density=474.07 kg/m3
  molar heat capacity at constant volume: 283.14 ± 3 J/K/mol
514.48 K, Mass density=95.93 kg/m3
  molar heat capacity at constant volume: 308.72 ± 5.9 J/K/mol
514.48 K, Mass density=474.07 kg/m3
  molar heat capacity at constant volume: 295.75 ± 3 J/K/mol
514.67 K, Mass density=95.93 kg/m3
  molar heat capacity at constant volume: 252.53 ± 5.5 J/K/mol
514.67 K, Mass density=474.07 kg/m3
  molar heat capacity at constant volume: 285.37 ± 3 J/K/mol
514.86 K, Mass density=95.93 kg/m3
  molar heat capacity at constant volume: 246.31 ± 5.6 J/K/mol
514.86 K, Mass density=474.07 kg/m3
  molar heat capacity at constant volume: 291.3 ± 3 J/K/mol
515.04 K, Mass density=95.93 kg/m3
  molar heat capacity at constant volume: 265.58 ± 6.4 J/K/mol
515.04 K, Mass density=474.07 kg/m3
  molar heat capacity at constant volume: 286.85 ± 3 J/K/mol
515.23 K, Mass density=95.93 kg/m3
  molar heat capacity at constant volume: 271.43 ± 3 J/K/mol
515.23 K, Mass density=474.07 kg/m3
  molar heat capacity at constant volume: 240.9 ± 2.2 J/K/mol
515.42 K, Mass density=95.93 kg/m3
  molar heat capacity at constant volume: 276.47 ± 2.9 J/K/mol
515.42 K, Mass density=474.07 kg/m3
  molar heat capacity at constant volume: 230.52 ± 2.2 J/K/mol
515.6 K, Mass density=474.07 kg/m3
  molar heat capacity at constant volume: 230.52 ± 2.2 J/K/mol
515.79 K, Mass density=95.93 kg/m3
  molar heat capacity at constant volume: 198.72 ± 2.1 J/K/mol
515.79 K, Mass density=474.07 kg/m3
  molar heat capacity at constant volume: 229.04 ± 2.2 J/K/mol
515.98 K, Mass density=95.93 kg/m3
  molar heat capacity at constant volume: 206.28 ± 2.1 J/K/mol
515.98 K, Mass density=474.07 kg/m3
  molar heat capacity at constant volume: 232.74 ± 2.2 J/K/mol
516.16 K, Mass density=95.93 kg/m3
  molar heat capacity at constant volume: 200.65 ± 2.1 J/K/mol
516.35 K, Mass density=95.93 kg/m3
  molar heat capacity at constant volume: 215.69 ± 2.4 J/K/mol
516.53 K, Mass density=95.93 kg/m3
  molar heat capacity at constant volume: 229.41 ± 2.4 J/K/mol
516.53 K, Mass density=403.55 kg/m3
  molar heat capacity at constant volume: 311.31 ± 3 J/K/mol
516.53 K, Mass density=474.07 kg/m3
  molar heat capacity at constant volume: 220.14 ± 2.2 J/K/mol
516.72 K, Mass density=95.93 kg/m3
  molar heat capacity at constant volume: 228.07 ± 2.3 J/K/mol
516.72 K, Mass density=403.55 kg/m3
  molar heat capacity at constant volume: 309.83 ± 3 J/K/mol
516.72 K, Mass density=474.07 kg/m3
  molar heat capacity at constant volume: 223.11 ± 2.2 J/K/mol
516.91 K, Mass density=95.93 kg/m3
  molar heat capacity at constant volume: 243.71 ± 2.5 J/K/mol
516.91 K, Mass density=403.55 kg/m3
  molar heat capacity at constant volume: 312.79 ± 3 J/K/mol
516.91 K, Mass density=474.07 kg/m3
  molar heat capacity at constant volume: 221.62 ± 2.2 J/K/mol
516.91 K, Mass density=538.17 kg/m3
  molar heat capacity at constant volume: 212.88 ± 2.1 J/K/mol
517.09 K, Mass density=95.93 kg/m3
  molar heat capacity at constant volume: 203.61 ± 2.1 J/K/mol
517.09 K, Mass density=403.55 kg/m3
  molar heat capacity at constant volume: 309.09 ± 3 J/K/mol
517.09 K, Mass density=474.07 kg/m3
  molar heat capacity at constant volume: 222.36 ± 2.2 J/K/mol
517.09 K, Mass density=538.17 kg/m3
  molar heat capacity at constant volume: 213.84 ± 2.1 J/K/mol
517.28 K, Mass density=95.93 kg/m3
  molar heat capacity at constant volume: 224.96 ± 2.3 J/K/mol
517.28 K, Mass density=403.55 kg/m3
  molar heat capacity at constant volume: 310.57 ± 3 J/K/mol
517.28 K, Mass density=538.17 kg/m3
  molar heat capacity at constant volume: 214.06 ± 2.1 J/K/mol
517.47 K, Mass density=403.55 kg/m3
  molar heat capacity at constant volume: 313.53 ± 3 J/K/mol
517.65 K, Mass density=403.55 kg/m3
  molar heat capacity at constant volume: 309.09 ± 3 J/K/mol
520.44 K, Mass density=117 kg/m3
  molar heat capacity at constant volume: 740.77 ± 7.4 J/K/mol
520.63 K, Mass density=117 kg/m3
  molar heat capacity at constant volume: 732.54 ± 7.3 J/K/mol
520.81 K, Mass density=117 kg/m3
  molar heat capacity at constant volume: 737.95 ± 7.4 J/K/mol
521 K, Mass density=117 kg/m3
  molar heat capacity at constant volume: 726.1 ± 7.3 J/K/mol
521.18 K, Mass density=117 kg/m3
  molar heat capacity at constant volume: 734.77 ± 7.4 J/K/mol
521.37 K, Mass density=117 kg/m3
  molar heat capacity at constant volume: 723.58 ± 7.5 J/K/mol
521.55 K, Mass density=117 kg/m3
  molar heat capacity at constant volume: 728.69 ± 9.4 J/K/mol
521.74 K, Mass density=117 kg/m3
  molar heat capacity at constant volume: 715.2 ± 9.9 J/K/mol
521.74 K, Mass density=142.27 kg/m3
  molar heat capacity at constant volume: 509.66 ± 5.2 J/K/mol
521.92 K, Mass density=117 kg/m3
  molar heat capacity at constant volume: 709.42 ± 9.7 J/K/mol
521.92 K, Mass density=142.27 kg/m3
  molar heat capacity at constant volume: 517.74 ± 5.2 J/K/mol
522.11 K, Mass density=117 kg/m3
  molar heat capacity at constant volume: 639 ± 9.1 J/K/mol
522.11 K, Mass density=142.27 kg/m3
  molar heat capacity at constant volume: 522.71 ± 5.3 J/K/mol
522.13 K, Mass density=117 kg/m3
  molar heat capacity at constant volume: 606.09 ± 8.8 J/K/mol
522.15 K, Mass density=117 kg/m3
  molar heat capacity at constant volume: 603.42 ± 8.4 J/K/mol
522.16 K, Mass density=117 kg/m3
  molar heat capacity at constant volume: 599.35 ± 8.4 J/K/mol
522.18 K, Mass density=117 kg/m3
  molar heat capacity at constant volume: 590.9 ± 8.3 J/K/mol
522.2 K, Mass density=117 kg/m3
  molar heat capacity at constant volume: 590.9 ± 8.3 J/K/mol
522.22 K, Mass density=117 kg/m3
  molar heat capacity at constant volume: 505.14 ± 7.7 J/K/mol
522.24 K, Mass density=117 kg/m3
  molar heat capacity at constant volume: 408.41 ± 7.1 J/K/mol
522.26 K, Mass density=117 kg/m3
  molar heat capacity at constant volume: 318.13 ± 6.7 J/K/mol
522.28 K, Mass density=117 kg/m3
  molar heat capacity at constant volume: 304.49 ± 7.2 J/K/mol
522.3 K, Mass density=117 kg/m3
  molar heat capacity at constant volume: 309.61 ± 7.3 J/K/mol
522.3 K, Mass density=142.27 kg/m3
  molar heat capacity at constant volume: 521.45 ± 5.3 J/K/mol
522.31 K, Mass density=117 kg/m3
  molar heat capacity at constant volume: 308.86 ± 7.3 J/K/mol
522.33 K, Mass density=117 kg/m3
  molar heat capacity at constant volume: 298.12 ± 6.7 J/K/mol
522.35 K, Mass density=117 kg/m3
  molar heat capacity at constant volume: 289.44 ± 6.7 J/K/mol
522.37 K, Mass density=117 kg/m3
  molar heat capacity at constant volume: 280.77 ± 6.7 J/K/mol
522.39 K, Mass density=117 kg/m3
  molar heat capacity at constant volume: 260.54 ± 6.6 J/K/mol
522.4 K, Mass density=117 kg/m3
  molar heat capacity at constant volume: 247.05 ± 6.6 J/K/mol
522.42 K, Mass density=117 kg/m3
  molar heat capacity at constant volume: 241.56 ± 6.6 J/K/mol
522.44 K, Mass density=117 kg/m3
  molar heat capacity at constant volume: 241.56 ± 6.6 J/K/mol
522.46 K, Mass density=117 kg/m3
  molar heat capacity at constant volume: 222.29 ± 7 J/K/mol
522.48 K, Mass density=117 kg/m3
  molar heat capacity at constant volume: 221.62 ± 7 J/K/mol
522.48 K, Mass density=142.27 kg/m3
  molar heat capacity at constant volume: 530.71 ± 5.3 J/K/mol
522.67 K, Mass density=117 kg/m3
  molar heat capacity at constant volume: 241.78 ± 7.1 J/K/mol
522.67 K, Mass density=142.27 kg/m3
  molar heat capacity at constant volume: 535.45 ± 5.4 J/K/mol
522.85 K, Mass density=117 kg/m3
  molar heat capacity at constant volume: 245.27 ± 7.2 J/K/mol
522.85 K, Mass density=142.27 kg/m3
  molar heat capacity at constant volume: 540.12 ± 5.4 J/K/mol
523.04 K, Mass density=117 kg/m3
  molar heat capacity at constant volume: 242.75 ± 4.2 J/K/mol
523.04 K, Mass density=142.27 kg/m3
  molar heat capacity at constant volume: 544.87 ± 5.5 J/K/mol
523.22 K, Mass density=117 kg/m3
  molar heat capacity at constant volume: 224.14 ± 2.3 J/K/mol
523.22 K, Mass density=142.27 kg/m3
  molar heat capacity at constant volume: 528.41 ± 5.3 J/K/mol
523.41 K, Mass density=117 kg/m3
  molar heat capacity at constant volume: 213.62 ± 2.3 J/K/mol
523.41 K, Mass density=142.27 kg/m3
  molar heat capacity at constant volume: 530.64 ± 5.3 J/K/mol
523.59 K, Mass density=142.27 kg/m3
  molar heat capacity at constant volume: 531.67 ± 5.3 J/K/mol
523.78 K, Mass density=142.27 kg/m3
  molar heat capacity at constant volume: 532.34 ± 5.3 J/K/mol
524.33 K, Mass density=142.27 kg/m3
  molar heat capacity at constant volume: 531.23 ± 5.3 J/K/mol
524.52 K, Mass density=142.27 kg/m3
  molar heat capacity at constant volume: 529.97 ± 5.3 J/K/mol
524.7 K, Mass density=142.27 kg/m3
  molar heat capacity at constant volume: 534.05 ± 5.3 J/K/mol
524.89 K, Mass density=142.27 kg/m3
  molar heat capacity at constant volume: 531.45 ± 5.3 J/K/mol
525.07 K, Mass density=142.27 kg/m3
  molar heat capacity at constant volume: 529.6 ± 5.3 J/K/mol
525.26 K, Mass density=142.27 kg/m3
  molar heat capacity at constant volume: 530.41 ± 5.3 J/K/mol
525.44 K, Mass density=142.27 kg/m3
  molar heat capacity at constant volume: 530.93 ± 5.3 J/K/mol
525.63 K, Mass density=142.27 kg/m3
  molar heat capacity at constant volume: 531.82 ± 5.3 J/K/mol
525.81 K, Mass density=142.27 kg/m3
  molar heat capacity at constant volume: 537.01 ± 5.4 J/K/mol
525.99 K, Mass density=142.27 kg/m3
  molar heat capacity at constant volume: 538.94 ± 5.8 J/K/mol
527.1 K, Mass density=142.27 kg/m3
  molar heat capacity at constant volume: 532.93 ± 5.7 J/K/mol
527.29 K, Mass density=142.27 kg/m3
  molar heat capacity at constant volume: 536.64 ± 5.6 J/K/mol

— the NIST ThermoML archive (doi:10.1016/j.tca.2013.08.031)
